What was measured:
16D^CRPC cells = experiment: Cell proliferation, 16D cells that do not express BRN2 (crystal violet); type: cell-based; conditions: result in words
Description: Step 3: Cell Proliferation
Plate 42DE^NZR (˜7000 cells per well) and 16D^CRPC (˜5000 cells per well) cells in 96 well plate with a volume of 100 μL per well. • 2. Next day 1 mL aliquots of media are combined with 3× the desired concentration of compounds. The aliquots are vortexed and 50 μL of each 3× concentration is added to the 100 μL of media in each well to give the ix desired concentration.
The following are the desired concentrations:
0, 10 nM, 100 nM, 500 nM, 1 μM, 2.5 μM, 5 μM, 10 μM, 15 μM, 20 μM, 30 μM. • 3. Approximately 72 hours later, 17 μL of 10% Glutaraldehyde is added to each well and plates are placed on a shaker for 20-30 minutes. • 4. Media is washed off the fixed cells by slow submersion in a container of water. Then the water is removed by tapping the plate upside down. • 5. 75 μL of Crystal Violet™ solution is added into the 96 well plates and placed on a shaker for ˜30 minutes. • 6. Media is washed off the fixed cells by repeated slow submersion in a container of water and the plates are allowed to dry over-night. • 7. Next day, 75 μL of Sorensen Solution is accurately pipetted into each well. The plates placed on a shaker for ˜30 minutes. • 8. Absorbance is measured in the plate at 590 nm. Compounds that Show Specificity Towards 42DE^NZR Cells Vs 16D^CRPC Cells Progress to Step 4.
In TABLES 1 and 2, in columns Met Stab % and T½, refers to compound's stability in MLM. There is a distinction in TABLES 1 and 2 difference between “Active” and “Specific” or “Specificity”. Some of the compounds were first tested to quantify inhibition of BRN2 transcriptional activity in a luciferase assay to determine BRN2 inhibition at 10 μM and 30 μM concentrations. […] Generally, compounds having low inhibitory activity were compounds with less than about ˜30% or activation at either concentration (i.e. 10 μM or 30 μM). Furthermore, some compounds that lacked specificity could also show off-target effects.

42D^ENZR cells = experiment: Cell proliferation, BRN2 expressing 42D cells (crystal violet); type: cell-based; conditions: about 72 hours
Summary of the method: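 42D^ENZR (~7000/well) and 16D^CRPC (~5000/well) cells plated, compound added next day from 3× media stocks. After ~72 hours, cells fixed with glutaraldehyde, stained with crystal violet, dye eluted in Sorensen solution; absorbance read at 590 nm.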

Question: With `O=C1/C(=N\Nc2nc3ccccc3s2)Cc2ccccc21` [7-62, (Z)-2-(2-(benzo[d]thiazol-2-yl)hydrazineylidene)-2,3-dihydro-1H-inden-1-one] as the compound, how does the “effect on 16D” value (16D^CRPC cells) read?
Answer: no effect on 16D

Question: And the “Growth Specificity” value (42D^ENZR cells; 42D (express BRN2) versus 16D (no BRN2) cells, result in words)?
Answer: Specific to 42D

Question: What about the IC50 (42D^ENZR cells; 42D cells, proliferation, read-out: 42D IC50) of the same compound?
Answer: 1000 nM

Reference: US20250205204A1, “Transcription Factor Brn2 Inhibitory Compounds for Use as Therapeutics” (The University of British Columbia, priority 2021, published 2025)
